The NIST ThermoML archive (doi:10.1016/j.fluid.2009.08.011)
Numbers after ± are expanded uncertainties.

Assay: cn = amount concentration of the nth substance listed, in mol/dm3
Conditions: 101 kPa, Liquid, Alternating current cell with electrodes

CCCCn1cc[n+](C)c1.[Br-] [1-butyl-3-methylimidazolium bromide] + O
Conditions | molar conductivity [S·m2/mol]
298.15 K, c1 = 0.0004937 | 0.0131 ± 0.0013
298.15 K, c1 = 0.0008655 | 0.0131 ± 0.0013
298.15 K, c1 = 0.001621 | 0.013 ± 0.0013
298.15 K, c1 = 0.002706 | 0.0129 ± 0.0013
298.15 K, c1 = 0.003761 | 0.0128 ± 0.0013
298.15 K, c1 = 0.005815 | 0.0126 ± 0.0013
298.15 K, c1 = 0.008089 | 0.0125 ± 0.0013
298.15 K, c1 = 0.01047 | 0.0123 ± 0.0012
298.15 K, c1 = 0.01259 | 0.0122 ± 0.0012
308.15 K, c1 = 0.0004882 | 0.0137 ± 0.0014
308.15 K, c1 = 0.00104 | 0.0135 ± 0.0014
308.15 K, c1 = 0.001567 | 0.0135 ± 0.0013
308.15 K, c1 = 0.001953 | 0.0134 ± 0.0013
308.15 K, c1 = 0.002955 | 0.0132 ± 0.0013
308.15 K, c1 = 0.00388 | 0.0131 ± 0.0013
308.15 K, c1 = 0.004882 | 0.0129 ± 0.0013
308.15 K, c1 = 0.006552 | 0.0128 ± 0.0013
308.15 K, c1 = 0.008273 | 0.0127 ± 0.0013
308.15 K, c1 = 0.009904 | 0.0125 ± 0.0013
308.15 K, c1 = 0.01206 | 0.0124 ± 0.0012
318.15 K, c1 = 0.000457 | 0.015 ± 0.0015
318.15 K, c1 = 0.001096 | 0.0148 ± 0.0015
318.15 K, c1 = 0.001486 | 0.0147 ± 0.0015
318.15 K, c1 = 0.002393 | 0.0143 ± 0.0014
318.15 K, c1 = 0.003324 | 0.014 ± 0.0014
318.15 K, c1 = 0.004652 | 0.0138 ± 0.0014
318.15 K, c1 = 0.006235 | 0.0134 ± 0.0013
318.15 K, c1 = 0.008073 | 0.0131 ± 0.0013
318.15 K, c1 = 0.009991 | 0.0129 ± 0.0013
318.15 K, c1 = 0.012 | 0.0126 ± 0.0013
318.15 K, c1 = 0.0138 | 0.0124 ± 0.0012
328.15 K, c1 = 0.00043 | 0.0158 ± 0.0016
328.15 K, c1 = 0.000847 | 0.0157 ± 0.0016
328.15 K, c1 = 0.001805 | 0.0154 ± 0.0015
328.15 K, c1 = 0.002719 | 0.0152 ± 0.0015
328.15 K, c1 = 0.003628 | 0.015 ± 0.0015
328.15 K, c1 = 0.005125 | 0.0147 ± 0.0015
328.15 K, c1 = 0.006801 | 0.0144 ± 0.0014
328.15 K, c1 = 0.008998 | 0.014 ± 0.0014
328.15 K, c1 = 0.01111 | 0.0136 ± 0.0014
328.15 K, c1 = 0.01358 | 0.0132 ± 0.0013

CCCCn1cc[n+](C)c1.[Cl-] [1-butyl-3-methylimidazolium chloride] + O
Conditions | molar conductivity [S·m2/mol]
298.15 K, c1 = 0.0004271 | 0.0109 ± 0.0011
298.15 K, c1 = 0.0009378 | 0.0108 ± 0.0011
298.15 K, c1 = 0.001755 | 0.0107 ± 0.0011
298.15 K, c1 = 0.002553 | 0.0106 ± 0.0011
298.15 K, c1 = 0.002999 | 0.0106 ± 0.0011
298.15 K, c1 = 0.003835 | 0.0105 ± 0.0011
298.15 K, c1 = 0.004438 | 0.0104 ± 0.001
298.15 K, c1 = 0.004986 | 0.0104 ± 0.001
298.15 K, c1 = 0.005608 | 0.0103 ± 0.001
298.15 K, c1 = 0.006388 | 0.0103 ± 0.001
298.15 K, c1 = 0.007112 | 0.0102 ± 0.001
298.15 K, c1 = 0.008217 | 0.0101 ± 0.001
298.15 K, c1 = 0.008932 | 0.0101 ± 0.001
298.15 K, c1 = 0.009777 | 0.00999 ± 0.001
298.15 K, c1 = 0.01041 | 0.00996 ± 0.001
298.15 K, c1 = 0.01119 | 0.00983 ± 0.00098
298.15 K, c1 = 0.01216 | 0.00978 ± 0.00098
298.15 K, c1 = 0.01304 | 0.00968 ± 0.00097
298.15 K, c1 = 0.01389 | 0.00962 ± 0.00096
308.15 K, c1 = 0.0006735 | 0.0111 ± 0.0011
308.15 K, c1 = 0.001508 | 0.011 ± 0.0011
308.15 K, c1 = 0.002241 | 0.011 ± 0.0011
308.15 K, c1 = 0.002432 | 0.0109 ± 0.0011
308.15 K, c1 = 0.003588 | 0.0108 ± 0.0011
308.15 K, c1 = 0.004875 | 0.0106 ± 0.0011
308.15 K, c1 = 0.006007 | 0.0104 ± 0.001
308.15 K, c1 = 0.008219 | 0.0103 ± 0.001
308.15 K, c1 = 0.01013 | 0.0103 ± 0.001
308.15 K, c1 = 0.01259 | 0.0102 ± 0.001
308.15 K, c1 = 0.01457 | 0.0101 ± 0.001
308.15 K, c1 = 0.01708 | 0.01 ± 0.001
308.15 K, c1 = 0.01958 | 0.01 ± 0.001
308.15 K, c1 = 0.02199 | 0.00998 ± 0.001
318.15 K, c1 = 0.000681 | 0.0119 ± 0.0012
318.15 K, c1 = 0.001635 | 0.0117 ± 0.0012
318.15 K, c1 = 0.002388 | 0.0113 ± 0.0011
318.15 K, c1 = 0.003429 | 0.0111 ± 0.0011
318.15 K, c1 = 0.004391 | 0.0109 ± 0.0011
318.15 K, c1 = 0.006618 | 0.0107 ± 0.0011
318.15 K, c1 = 0.008725 | 0.0105 ± 0.001
318.15 K, c1 = 0.01078 | 0.0103 ± 0.001
318.15 K, c1 = 0.01367 | 0.0101 ± 0.001
318.15 K, c1 = 0.01671 | 0.00997 ± 0.001
318.15 K, c1 = 0.02016 | 0.00981 ± 0.00098
318.15 K, c1 = 0.02295 | 0.0097 ± 0.00097
318.15 K, c1 = 0.02493 | 0.00962 ± 0.00096
328.15 K, c1 = 0.0006908 | 0.0125 ± 0.0012
328.15 K, c1 = 0.0007995 | 0.0124 ± 0.0012
328.15 K, c1 = 0.001327 | 0.0123 ± 0.0012
328.15 K, c1 = 0.002041 | 0.0121 ± 0.0012
328.15 K, c1 = 0.002693 | 0.012 ± 0.0012
328.15 K, c1 = 0.004479 | 0.0115 ± 0.0011
328.15 K, c1 = 0.006054 | 0.0113 ± 0.0011
328.15 K, c1 = 0.007413 | 0.0111 ± 0.0011
328.15 K, c1 = 0.008786 | 0.0109 ± 0.0011
328.15 K, c1 = 0.01028 | 0.0108 ± 0.0011
328.15 K, c1 = 0.01229 | 0.0106 ± 0.0011
328.15 K, c1 = 0.01504 | 0.0104 ± 0.001
328.15 K, c1 = 0.01749 | 0.0102 ± 0.001
